Here are results for 11 compounds from US4503256A, “Phlorophenone derivatives, processes for preparing such compounds, uses and pharmaceutical compositions of phlorophenone compounds” (Noristan Limited, priority 1981, dated 1985).

One series concerns St. PYOGENES
In words: Minimum Inhibitory Concentration (MIC), broth dilution in Brain Heart Infusion broth. It counts as cell-based. The note with it: 37° C., 48 hours; for MIC: Streptococcus pyogenes. The protocol: (§1) For testing against the bacteria, concentrations of each of the compounds were prepared in Brain Heart Infusion broth (Oxoid CM225) in two-fold steps from 1000 μg/ml to 1 μg/ml. Solutions containing 1000 μg/ml were prepared by dissolving 20 mg of each compound in 5 ml of acetone and this was then made up to 20 ml with Brain Heart Infusion Broth. Serial two-fold dilutions were then prepared in the broth down to 1 μg/ml.
(§2) For testing against the bacteria each of the prepared test concentrations and acetone controls prepared in Brain Heart Infusion were dispensed in 2 ml amounts for each organism. A growth control of 2 ml of Brain Heart Infusion was included in each series.
(§3) To each of the prepared sets of concentrations of each compound were added 0.1 ml aliquots of the organism suspensions prepared as described previously. All the bottles were incubated at 37° C. for 48 hours in the case of the bacteria and from 5 to 15 days for the fungi (until growth controls had grown in each case).
(§4) After incubation the broths were examined for evidence of growth. The lowest concentration of the test compound which prevented growth was recorded as the Minimum Inhibitory Concentration (MIC).

The subject of the next series is S. AUREUS. The description is as above. The note with it: for MIC: Staphylococcus aureus, read-out: MIC S. AUREUS. The format is cell-based, Staphylococcus aureus. The protocol:
as §1, §2, §3, §4

The next series deals with Tr. MENTAGROPHYTES
In words: Minimum Inhibitory Concentration (MIC), dilution in Sabouraud liquid medium. It counts as cell-based. The note with it: 37° C., 5 to 15 days; for MIC: Trichophyton mentagrophytes. The protocol: (§5) For testing against the fungi, concentrations of each of the compounds were prepared in Sabouraud liquid medium in two-fold steps from 100 μg/ml to 0.1 μg/ml. 500 μg/ml solutions were prepared by dissolving 10 mg in 5 ml of acetone, made up to 20 ml with Sabouraud liquid medium. 4 ml of the 500 μg/ml concentration was then made up to 20 ml with Sabouraud liquid medium to give a concentration of 100 μg/ml. Serial two-fold dilutions were prepared from this in the same medium down to 0.1 μg/ml.
(§6) For the fungi the same procedure was followed using the concentrations made up in Sabouraud liquid medium. The Nystatin concentrations were also dispensed in 2 ml amounts for each organism. Growth controls of Sabouraud liquid medium were included in each series.
as §3, §4

A further series has as its system C. ALBICANS
The series is described as above. The format is cell-based. The note with it: 37° C., 5 to 15 days; for MIC: Candida albicans. Here is the method: as §5, §6, §3, §4

Another series relates to Tr. RUBRUM. The description is as above. It counts as cell-based. Particulars: 37° C., 5 to 15 days; for MIC: Trichophyton rubrum. Here is the method: as §5, §6, §3, §4
Another series concerns Mic. CANIS. The series is described as above. The note with it: 37° C., 5 to 15 days; for MIC: Microsporum canis. It counts as cell-based. Here is the method: as §5, §6, §3, §4
The test system of another series is Sp. SCHENKII
The series is described as above. The format is cell-based. Particulars: 37° C., 5 to 15 days. Here is the method:
as §5, §6, §3, §4

Series [1] is described as follows: Acute oral toxicity in CD-1 mice. It counts as in vivo. Particulars: mouse, in vivo, male and female CD-1 mice, dose levels 1000, 464, 215 and 100 mg/kg, 7 days observation. The protocol: (§7) Male and female CD-1 mice were fasted for 18 hours prior to the experiment, but water was available ad libitum except during the observation period. The test compounds were prepared in 1% tragacanth and were administered orally to groups of two male and two female mice.
(§8) All compounds were tested at dose levels of 1000, 464, 215 and 100 mg/kg. Immediately after dosing, the mice were replaced in their "home" cage and were observed daily for 7 days post dose and any mortalities recorded.
(§9) The acute toxicities, as determined by the above procedure, of a number of representative compounds are given in the accompanying table.

The next series concerns bacteria. Particulars: literature (W. Riedl); cited from earlier work.
For a further series, the system named is CD-1 mice. In words: Acute oral toxicity in CD-1 mice. The format is in vivo. The note with it: male and female CD-1 mice, dose levels 1000, 464, 215 and 100 mg/kg, 7 days observation. Here is the method:
as §7, §8, §9

Setting [2] is: 37° C., 48 hours, Brain Heart Infusion broth.

In brackets after ≈: the same amount, converted by molar mass. Like-named read-outs stand apart in the source and are kept apart here.

Regarding `CCCCCCCCC(=O)c1c(O)cc(O)c(Cc2ccccc2)c1O` [Compound 27, 2-Nonanoyl-4-benzylphloroglucinol], the MIC is 1 µg/mL (≈ 2.81 µM) in the series on St. PYOGENES; 2 µg/mL (≈ 5.61 µM) with S. AUREUS (48 h); 5 µg/mL (≈ 14 µM) against Tr. MENTAGROPHYTES; 100 µg/mL (≈ 281 µM) in the series on C. ALBICANS; > 100 µg/mL in the series on Tr. RUBRUM; 50 µg/mL (≈ 140 µM) with Mic. CANIS. The same compound gave an MIC in the series with Sp. SCHENKII of 50 µg/mL (≈ 140 µM). Besides, the LD50 at 168 h in series [1] was > 1000 mg/kg.

`CCCC(=O)c1c(O)cc(O)c2c1OC(C)(C)CC2` [Compound 30, 5,7-dihydroxy-2,2-dimethyl-8-butyryl chroman]: the MIC came to 32 µg/mL (≈ 121 µM) in the series with St. PYOGENES; 32 µg/mL (≈ 121 µM) in the series on S. AUREUS (setting [2]); 13 µg/mL (≈ 49.2 µM) with Tr. MENTAGROPHYTES; 25 µg/mL (≈ 94.6 µM) against C. ALBICANS; 13 µg/mL (≈ 49.2 µM) in the series on Tr. RUBRUM; 6 µg/mL (≈ 22.7 µM) in the series on Mic. CANIS. For the same compound, the lowest concentration to inhibit growth with Sp. SCHENKII (MIC) was 25 µg/mL (≈ 94.6 µM). Further, in [1], the LD50 at 168 h was > 1000 mg/kg.

Turning to `CC(C)CCC(=O)c1c(O)cc(O)c2c1OC(C)(C)CC2` [Compound 31, 5,7-Dihydroxy-2,2-dimethyl-8-isocaproylchroman], the MIC against St. PYOGENES is 8 µg/mL (≈ 27.4 µM); with S. AUREUS (setting [2]), 16 µg/mL (≈ 54.7 µM); against Tr. MENTAGROPHYTES, 6 µg/mL (≈ 20.5 µM); against C. ALBICANS, 100 µg/mL (≈ 342 µM); in the series on Tr. RUBRUM, 25 µg/mL (≈ 85.5 µM); with Mic. CANIS, 13 µg/mL (≈ 44.5 µM). Besides, in the series on Sp. SCHENKII, 6 µg/mL (≈ 20.5 µM) was the least that counted as inhibitory (MIC). The LD50 at 168 h in [1] was > 1000 mg/kg.

Consider `CCCCCCCCC(=O)c1c(O)cc(O)c2c1OC(C)(C)CC2` [Compound 32, 5,7-Dihydroxy-2,2-dimethyl-8-nonanoyl chroman], for which the MIC in the series on St. PYOGENES was < 1 µg/mL; in the series on S. AUREUS (setting [2]), 64 µg/mL (≈ 191 µM); against Tr. MENTAGROPHYTES, > 100 µg/mL; in the series on C. ALBICANS, 100 µg/mL (≈ 299 µM); against Tr. RUBRUM it was > 100 µg/mL; against Mic. CANIS, 100 µg/mL (≈ 299 µM). This compound also gave an MIC with Sp. SCHENKII of 100 µg/mL (≈ 299 µM). The LD50 at 168 h in series [1] is > 1000 mg/kg.

`CC(C)CCC(=O)c1c(O)cc2c(c1O)CCC(C)(C)O2` [Compound 33, 5,7-dihydroxy-2,2-dimethyl-6-isocaproyl chroman]: the MIC was 64 µg/mL (≈ 219 µM) in the series on St. PYOGENES; 125 µg/mL (≈ 428 µM) in the series with S. AUREUS (setting [2]); > 100 µg/mL in the series on Tr. MENTAGROPHYTES; 100 µg/mL (≈ 342 µM) against C. ALBICANS; 25 µg/mL (≈ 85.5 µM) against Tr. RUBRUM; 100 µg/mL (≈ 342 µM) with Mic. CANIS. In the series with Sp. SCHENKII, the minimum inhibitory concentration (MIC) is > 100 µg/mL. In series [1], the LD50 at 168 h is > 1000 mg/kg.

Consider `CCCCCCCCC(=O)c1c(O)cc2c(c1O)CCC(C)(C)O2` [Compound 34, 5,7-dihydroxy-2,2-dimethyl-6-nonanoyl chroman], for which the MIC is 4 µg/mL (≈ 12 µM) against St. PYOGENES; 500 µg/mL (≈ 1490 µM) with S. AUREUS (setting [2]); > 100 µg/mL against Tr. MENTAGROPHYTES; 100 µg/mL (≈ 299 µM) against C. ALBICANS; 100 µg/mL (≈ 299 µM) in the series with Tr. RUBRUM; > 100 µg/mL against Mic. CANIS. For the same compound, in the series on Sp. SCHENKII, the MIC was > 100 µg/mL. The LD50 at 168 h in series [1] was > 1000 mg/kg.

Consider `CCCC(=O)c1c(O)c2c(c(C(=O)CCC)c1O)OC(C)(C)CC2` [Compound 36, 5,7-Dihydroxy-6,8-dibutyryl-2,2-dimethylchroman], for which the MIC against St. PYOGENES is 64 µg/mL (≈ 191 µM); with S. AUREUS (setting [2]), 250 µg/mL (≈ 748 µM); in the series on Tr. MENTAGROPHYTES, 100 µg/mL (≈ 299 µM); in the series on C. ALBICANS, 100 µg/mL (≈ 299 µM); against Tr. RUBRUM it was 100 µg/mL (≈ 299 µM); against Mic. CANIS, 100 µg/mL (≈ 299 µM). The compound further showed an MIC in the series on Sp. SCHENKII of 100 µg/mL (≈ 299 µM). For the same compound, the LD50 at 168 h in series [1] was > 1000 mg/kg.

With `CCCC(=O)c1c(O)c2c(c(C(=O)CCC)c1O)OC(C)C2` (centres unmarked) [Compound 37, 4,6-dihydroxy-5,7-dibutyryl-2-methyl-2,3-dihydrobenzofuran], the MIC with St. PYOGENES was 32 µg/mL (≈ 104 µM); with S. AUREUS (setting [2]) it was 125 µg/mL (≈ 408 µM); with Tr. MENTAGROPHYTES, > 100 µg/mL; with C. ALBICANS, > 100 µg/mL; against Tr. RUBRUM, 100 µg/mL (≈ 326 µM); against Mic. CANIS it was > 100 µg/mL. Moreover, in the series on Sp. SCHENKII, the MIC was > 100 µg/mL. Further, the LD50 at 168 h in series [1] was > 215 mg/kg.

As to `CC(C)=CCC1=C(O)C(O)(CC=C(C)C)C(=O)C(C(=O)CC(C)C)=C1O` (centres unmarked) [humulon], the “antibiotic / antibacterial activity (in words)” value with bacteria is “certain antibiotic properties”.

As for `CC(C)=CCC1=C(O)C(C(=O)CC(C)C)=C(O)C(CC=C(C)C)(CC=C(C)C)C1=O` [lupulone], the “antibiotic / antibacterial activity (in words)” value in the series on bacteria was “certain antibiotic properties”.

Regarding “either 7-butyryl-4,6-dihydroxy-2-methyl-2,3-dihydrobenzofuran or 5-butyryl-4,6-dihydroxy-2-methyl-2,3-dihydrobenzofuran [Compound 35]”, the “MIC St. PYOGENES” value against St. PYOGENES was 32 µg/mL. The “MIC S. AUREUS” value in the series with S. AUREUS (setting [2]) is 125 µg/mL. Moreover, the “MIC Tr. MENTAGROPHYTES” value against Tr. MENTAGROPHYTES was determined as 25 µg/mL. In addition, the “MIC C. ALBICANS” value against C. ALBICANS turned out to be 25 µg/mL. Moreover, the “MIC Tr. RUBRUM” value against Tr. RUBRUM worked out at 25 µg/mL. In the series on Mic. CANIS, the “MIC Mic. CANIS” value is given as 12,5 μg/ml. In addition, in the series with Sp. SCHENKII, the “MIC Sp. SCHENKII” value worked out at 50 µg/mL. For the same compound, the LD50 with CD-1 mice was > 1000.

The MIC is the lowest concentration that inhibits growth of the organism.
